# Reference: US10966978B2, “Dose and regimen for HDM2-p53 interaction inhibitors” (Novartis AG, priority 2016, dated 2021)
# Read-outs that look alike come from different tables or passages of the source.
# Assay: Clinical PK of HDM201 in patients (non-compartmental and population PK), study HDM201X2101
# Format: in vivo, human
# Conditions: for Tmax / Cmax / AUC(0-t): human, plasma, oral; for Tmax: read-out: Tmax, median; for Cmax: read-out: Cmax, Geo Mean (% CV); for AUC(0-t): read-out: AUClast (0-24 h), Geo Mean (% CV)
# Procedure: Pharmacokinetic data have been evaluated throughout the course of the dose escalation. Two HDM201 drug variants have been evaluated during the course of the study (refer to the protocol for further details). […] Furthermore, an integrated analysis of all available HDM201 concentrations was conducted using a population approach. The PK of HDM201 was best described by a 1-compartment PK model with a delayed zero- and first-order absorption process, and a linear clearance. Body weight was identified as a statistically significant covariate on apparent central volume of distribution (Vc/F), in which Vc/F increased with increasing body weight.
# Inter-patient variability (CV % Geo-mean) in exposure was generally low to moderate. Compartmental population PK modeling of NVP-HDM201 was used to estimate the individual average plasma concentration for Cycle 1 and to allow comparison with preclinical average concentration for tumor stasis derived by PK/PD tumor growth modeling.
# The PK of HDM201 have been evaluated in the ongoing single agent Phase I clinical trial in patients with solid tumors and hematological malignancies (HDM201X2101). Patients have been treated with a single dose on Day 1 in a three-week cycle (q3w, regimen 1A), with a single dose on Day 1 and Day 8 in a four-week cycle (d1 and d8 of 4 w cycle, regimen 1B), or with daily dosing for the first 7 or 14 days in a four-week cycle (regimen 2C [q.d., 1 w on/3 w off] or regimen 2A [q.d., 2 w on/2 w off], respectively). PK assessments were conducted following single dose and repeated administration. Preliminary PK parameters from non-compartmental analysis of plasma concentration-time profiles are summarized by dose regimen and tumor type (data cut-off 1 Apr. 2016). PK parameters for Regimen 2A (Day 1 and 14 of Cycle 1 for doses from 1 to 20 mg) and Regimen 1A (Day 1 of Cycle 1 for doses from 12.5 to 350 mg) in solid tumor patients are summarized as representative of the PK for daily and less frequent dosing regimens (Tables 9, 10 and 11).
# Following oral dosing (HDM201 capsule, fasted), the median time to reach maximum plasma concentrations ranged from 2.0 to 5.8 h across the dose range (2 to 350 mg). With the daily dosing regimen, HDM201 steady-state was generally reached by Day 8, and accumulation was less than 2-fold. […]
# Furthermore, the individual PK data was best described by a 1-compartment PK model with a delayed zero- and first-order absorption process (data cut-off 1 Apr. 2016). […] Body weight was identified as a statistically significant covariate on Vc/F.
# [1] = Regimen 1A 12.5 mg, Day 1 single dose, solid malignancies, N = 1
# [2] = Regimen 1A 25 mg, Day 1 single dose, solid malignancies, N = 1
# [3] = Regimen 1A 50 mg, Day 1 single dose, solid malignancies, N = 4
# [4] = Regimen 1A 100 mg, Day 1 single dose, solid malignancies, N = 4
# [5] = Regimen 1A 200 mg, Day 1 single dose, solid malignancies, N = 5
# [6] = Regimen 2A 1 mg daily, Day 14, solid malignancies, N = 1
# [7] = Regimen 2A 2 mg daily, Day 14, solid malignancies, N = 2
# [8] = Regimen 2A 4 mg daily, Day 14, solid malignancies, N = 3
# [9] = Regimen 2A 15 mg daily, Day 14, solid malignancies, N = 4
# [10] = Regimen 2A 15 mg, Day 1 single dose, solid malignancies, N = 4
# [11] = 1 mg, Regimen 2A 1 mg, Day 1 single dose, solid malignancies, N = 1
# [12] = 2 mg, Regimen 2A 2 mg, Day 1 single dose, solid malignancies, N = 2
# [13] = 4 mg, Regimen 2A 4 mg, Day 1 single dose, solid malignancies, N = 4
# [14] = 7.5 mg, Regimen 2A 7.5 mg daily, Day 14, solid malignancies, N = 2
smiles,measurement,setting,value
"COc1ncc(-c2nc3c(n2C(C)C)[C@H](c2ccc(Cl)cc2)N(c2cc(Cl)cn(C)c2=O)C3=O)c(OC)n1 [HDM201, (S)-5-(5-Chloro-1-methyl-2-oxo-1,2-dihydro-pyridin-3-yl)-6-(4-chloro-phenyl)-2-(2,4-dimethoxy-pyrimidin-5-yl)-1-isopropyl-5,6-dihydro-1H-pyrrolo[3,4-d]imidazol-4-one]","AUClast (0-24 h), Geo Mean (% CV)",[1],1483.1 ng·h/mL
same,"Cmax, Geo Mean (% CV)",[1],118.0 ng/mL
same,"T½, Geo Mean (% CV)",[1],7.2 h
same,"AUClast (0-24 h), Geo Mean (% CV)",[2],1773.6 ng·h/mL
same,"T½, Geo Mean (% CV)",[2],31.1 h
same,"AUClast (0-24 h), Geo Mean (% CV)",[3],8028.8 (25.6) ng * hr/mL
same,"Cmax, Geo Mean (% CV)",[3],467.0 (13.0) ng/mL
same,"AUClast (0-24 h), Geo Mean (% CV)",[4],14287.0 (58.5) ng * hr/mL
same,"Cmax, Geo Mean (% CV)",[4],663.3 (30.1) ng/mL
same,"AUClast (0-24 h), Geo Mean (% CV)",[5],26255.2 (56.2) ng * hr/mL
same,"Cmax, Geo Mean (% CV)",[5],1168.8 (43.7) ng/mL
same,"AUClast (0-24 h), Geo Mean (% CV)",[6],99.5 ng·h/mL
same,"Cmax, Geo Mean (% CV)",[6],14.9 ng/mL
same,"AUClast (0-24 h), Geo Mean (% CV)","Regimen 2A 1 mg, Day 1 single dose, solid malignancies, N = 1",134.3 ng·h/mL
same,"AUClast (0-24 h), Geo Mean (% CV)",[7],109.3 (6.0) ng * hr/mL
same,"Cmax, Geo Mean (% CV)",[7],17.5 (4.9) ng/mL
same,"AUClast (0-24 h), Geo Mean (% CV)","Regimen 2A 2 mg, Day 1 single dose, solid malignancies, N = 2",169.1 (31.5) ng * hr/mL
same,"AUClast (0-24 h), Geo Mean (% CV)",[8],155.0 (21.7) ng * hr/mL
same,"Cmax, Geo Mean (% CV)",[8],25.6 (23.9) ng/mL
same,"Cmax, Geo Mean (% CV)","Regimen 2A 4 mg, Day 1 single dose, solid malignancies, N = 4",17.6 (22.8) ng/mL
same,"AUClast (0-24 h), Geo Mean (% CV)","Regimen 2A 7.5 mg, Day 1 single dose, solid malignancies, N = 4",598.1 (49.8) ng * hr/mL
same,"AUClast (0-24 h), Geo Mean (% CV)",[9],688.8 (29.2) ng * hr/mL
same,"Cmax, Geo Mean (% CV)",[9],106.0 (27.9) ng/mL
same,"AUClast (0-24 h), Geo Mean (% CV)",[10],1301.6 (71.0) ng * hr/mL
same,"Cmax, Geo Mean (% CV)",[10],91.5 (56.9) ng/mL
same,accumulation upon daily dosing,daily dosing,limited accumulation
same,accumulation,daily dosing regimen,less than 2 fold
same,steady-state reached by,daily dosing regimen,≤ 8 days
same,Tmax,"1 mg, Regimen 2A 1 mg daily, Day 14, solid malignancies, N = 1",4 h
same,Cmax,[11],7.9 ng/mL
same,Tmax,[11],8 h
same,Tmax,"2 mg, Regimen 2A 2 mg daily, Day 14, solid malignancies, N = 2",3.9 h
same,Cmax,[12],12 ng/mL
same,Tmax,[12],3.4 h
same,Tmax,"4 mg, Regimen 2A 4 mg daily, Day 14, solid malignancies, N = 3",4 h
same,AUC(0-t),[13],193 ng·h/mL
same,Tmax,[13],2.5 h
same,AUC(0-t),[14],222 ng·h/mL
same,Cmax,[14],36.1 ng/mL
